From ChEMBL document CHEMBL5608163, “Structure modification of anoplin for fighting resistant bacteria” (Eur J Med Chem, 2024)
≈ marks a conversion by molar mass, not a printed value. Square brackets hold non-standard residues; d marks the D form. Peptide text beside a SMILES is read from it. βAla = NCCC(=O)O

Legend:
Pseudomonas aeruginosa [1] = experiment: Antibacterial activity against Pseudomonas aeruginosa ATCC 27853 assessed as reduction in bacterial growth incubated for 18 to 20 hrs by Mueller Hinton broth dilution method; format: functional; details: time 18-20 hrs
Bacillus subtilis = experiment: Antibacterial activity against Bacillus subtilis ATCC 23857 assessed as reduction in bacterial growth incubated for 18 to 20 hrs by Mueller Hinton broth dilution method; format: functional; details: time 18-20 hrs
Erythrocyte [2] = experiment: Hemolytic activity in mouse Red blood cells incubated for 1 hr by microplate reader assay; format: toxicity, cell-based; details: erythrocyte, 1 h
Staphylococcus aureus [3] = experiment: Antibacterial activity against Staphylococcus aureus ATCC 25923 assessed as reduction in bacterial growth incubated for 18 to 20 hrs by Mueller Hinton broth dilution method; format: functional; details: time 18-20 hrs
Escherichia coli [4] = experiment: Antibacterial activity against Escherichia coli ATCC 25922 assessed as reduction in bacterial growth incubated for 18 to 20 hrs by Mueller Hinton broth dilution method; format: functional; details: time 18-20 hrs
Klebsiella pneumoniae [5] = experiment: Antimicrobial activity against Klebsiella pneumoniae assessed as reduction in bacterial growth incubated for 18 to 20 hrs by Mueller-Hinton broth based microdilution method; format: functional; details: time 18-20 hrs
Staphylococcus aureus [6] = experiment: Antibacterial activity against Staphylococcus aureus ATCC 25923 assessed as reduction in bacterial cell growth incubated for 18 hrs by two fold serial microdilution method; format: functional
[7] = tested on: Staphylococcus epidermidis; experiment: Antibacterial activity against Staphylococcus epidermidis ATCC 12228 assessed as reduction in bacterial cell growth incubated for 18 hrs by two fold serial microdilution method; format: functional
Erythrocyte [8] = experiment: Hemolytic activity in mouse Red blood cells incubated for 1 hr; format: toxicity, cell-based
Escherichia coli [9] = experiment: Antibacterial activity against Escherichia coli ATCC 25922 assessed as reduction in bacterial cell growth incubated for 18 hrs by two fold serial microdilution method; format: functional
Klebsiella pneumoniae [10] = experiment: Antibacterial activity against Klebsiella pneumoniae ATCC 700603 assessed as reduction in bacterial cell growth incubated for 18 hrs by two fold serial microdilution method; format: functional
Acinetobacter baumannii = experiment: Antibacterial activity against Acinetobacter baumannii ATCC 19606 assessed as inhibition in bacterial growth incubated for 20 to 24 hrs by CLSI based broth microdilution method; format: functional; details: time 20-24 hrs
Pseudomonas aeruginosa [11] = experiment: Antibacterial activity against Pseudomonas aeruginosa ATCC 27853 assessed as reduction in bacterial cell growth incubated for 18 hrs by two fold serial microdilution method; format: functional

Row | Compound | MIC (Pseudomonas aeruginosa [1]) [µM] | MIC (Bacillus subtilis) [µM] | HC10 (Erythrocyte [2]) [µM] | MIC (Staphylococcus aureus [3]) [µM] | MIC (Escherichia coli [4]) [µM] | MIC (Klebsiella pneumoniae [5]) [µM] | MIC (Staphylococcus aureus [6]) [µM] | MIC [7] [µM] | HC10 (Erythrocyte [8]) [µM] | MIC (Escherichia coli [9]) [µM] | MIC (Klebsiella pneumoniae [10]) [µM] | MIC (Acinetobacter baumannii) [µM] | MIC (Pseudomonas aeruginosa [11]) [µM]
1 | CC[C@H](C)[C@H](NC(=O)[C@H](CCCNC(=N)N)NC(=O)[C@H](CCCCN)NC(=O)[C@H](CC(C)C)NC(=O)[C@H](CC(C)C)NC(=O)CN)C(=O)N[C@@H](CCCCN)C(=O)N[C@H](C(=O)N[C@H](CC(C)C)C(=O)N[C@H](CC(C)C)C(N)=O)[C@@H](C)O | 8 (≈ 9.23 µg/mL) | 8 (≈ 9.23 µg/mL) | > 300 | 64 (≈ 73.8 µg/mL) | 256 (≈ 295 µg/mL) | 128 (≈ 148 µg/mL) |  |  |  |  |  |  | 
2 | CC[C@H](C)[C@H](NC(=O)[C@H](CCCNC(=N)N)NC(=O)[C@H](CCCCN)NC(=O)[C@@H](CC(C)C)NC(=O)[C@H](CC(C)C)NC(=O)CN)C(=O)N[C@@H](CCCCN)C(=O)N[C@H](C(=O)N[C@H](CC(C)C)C(=O)N[C@H](CC(C)C)C(N)=O)[C@@H](C)O | 8 (≈ 9.23 µg/mL) | 8 (≈ 9.23 µg/mL) | > 300 | 64 (≈ 73.8 µg/mL) | 256 (≈ 295 µg/mL) | 64 (≈ 73.8 µg/mL) |  |  |  |  |  |  | 
3 | CC[C@H](C)[C@H](NC(=O)[C@H](CCCNC(=N)N)NC(=O)[C@H](CCCCN)NC(=O)[C@H](CC(C)C)NC(=O)[C@H](CC(C)C)NC(=O)CCN)C(=O)N[C@@H](CCCCN)C(=O)N[C@H](C(=O)N[C@@H](CC(C)C)C(=O)N[C@@H](CC(C)C)C(N)=O)[C@@H](C)O (H-[βAla]LLKRIKTLL-NH2) |  |  |  |  |  |  | 128 (≈ 149 µg/mL) | 8 (≈ 9.34 µg/mL) | > 256 | 32 (≈ 37.4 µg/mL) | 128 (≈ 149 µg/mL) | 128 (≈ 149 µg/mL) | 8 (≈ 9.34 µg/mL)
4 | CC[C@H](C)[C@H](NC(=O)[C@H](CCCNC(=N)N)NC(=O)CCNC(=O)[C@H](CC(C)C)NC(=O)[C@H](CC(C)C)NC(=O)CN)C(=O)N[C@@H](CCCCN)C(=O)N[C@H](C(=O)N[C@@H](CC(C)C)C(=O)N[C@@H](CC(C)C)C(N)=O)[C@@H](C)O (H-GLL[βAla]RIKTLL-NH2) |  |  |  |  |  |  | > 128 | 64 (≈ 70.2 µg/mL) | > 256 | 128 (≈ 140 µg/mL) | > 128 | > 128 | 32 (≈ 35.1 µg/mL)
5 | CC[C@H](C)[C@H](NC(=O)[C@H](CCCNC(=N)N)NC(=O)[C@H](CCCCN)NC(=O)[C@@H](CC(C)C)NC(=O)[C@@H](CC(C)C)NC(=O)CN)C(=O)N[C@@H](CCCCN)C(=O)N[C@H](C(=O)N[C@@H](CC(C)C)C(=O)N[C@@H](CC(C)C)C(N)=O)[C@@H](C)O | 8 (≈ 9.23 µg/mL) | 16 (≈ 18.5 µg/mL) | > 300 | > 256 | 128 (≈ 148 µg/mL) | > 256 |  |  |  |  |  |  | 
6 | CC[C@H](C)[C@H](NC(=O)[C@H](CCCNC(=N)N)NC(=O)[C@H](CCCCN)NC(=O)[C@H](CC(C)C)NC(=O)[C@@H](CC(C)C)NC(=O)CN)C(=O)N[C@@H](CCCCN)C(=O)N[C@H](C(=O)N[C@@H](CC(C)C)C(=O)N[C@H](CC(C)C)C(N)=O)[C@@H](C)O | 64 (≈ 73.8 µg/mL) | 64 (≈ 73.8 µg/mL) | > 300 | > 256 | 128 (≈ 148 µg/mL) | > 256 |  |  |  |  |  |  | 
7 | CC[C@H](C)[C@H](NC(=O)[C@H](CCCNC(=N)N)NC(=O)[C@H](CCCCN)NC(=O)[C@@H](CC(C)C)NC(=O)[C@H](CC(C)C)NC(=O)CN)C(=O)N[C@@H](CCCCN)C(=O)N[C@H](C(=O)N[C@H](CC(C)C)C(=O)N[C@@H](CC(C)C)C(N)=O)[C@@H](C)O | 8 (≈ 9.23 µg/mL) | 16 (≈ 18.5 µg/mL) | > 300 | > 256 | 32 (≈ 36.9 µg/mL) | 256 (≈ 295 µg/mL) |  |  |  |  |  |  | 
8 | CC[C@H](C)[C@H](NC(=O)[C@H](CCCNC(=N)N)NC(=O)[C@H](CCCCN)NC(=O)[C@H](CC(C)C)NC(=O)[C@H](CC(C)C)NC(=O)CN)C(=O)N[C@H](CCCCN)C(=O)N[C@@H](C(=O)N[C@@H](CC(C)C)C(=O)N[C@@H](CC(C)C)C(N)=O)[C@H](C)O | 128 (≈ 148 µg/mL) | 64 (≈ 73.8 µg/mL) | > 300 | > 256 | > 25 | > 256 |  |  |  |  |  |  | 
9 | CC[C@H](C)[C@H](NC(=O)[C@H](CCCNC(=N)N)NC(=O)[C@H](CCCCN)NC(=O)[C@H](CC(C)C)NC(=O)[C@H](CC(C)C)NC(=O)CN)C(=O)N[C@@H](CCCCN)C(=O)NCCC(=O)N[C@@H](CC(C)C)C(=O)N[C@@H](CC(C)C)C(N)=O (H-GLLKRIK[βAla]LL-NH2) |  |  |  |  |  |  | 128 (≈ 144 µg/mL) | 16 (≈ 18 µg/mL) | > 256 | 32 (≈ 36 µg/mL) | 128 (≈ 144 µg/mL) | > 128 | 4 (≈ 4.49 µg/mL)
10 | CC[C@H](C)[C@H](NC(=O)CCNC(=O)[C@H](CCCCN)NC(=O)[C@H](CC(C)C)NC(=O)[C@H](CC(C)C)NC(=O)CN)C(=O)N[C@@H](CCCCN)C(=O)N[C@H](C(=O)N[C@@H](CC(C)C)C(=O)N[C@@H](CC(C)C)C(N)=O)[C@@H](C)O (H-GLLK[βAla]IKTLL-NH2) |  |  |  |  |  |  | > 128 | 32 (≈ 34.2 µg/mL) | > 256 | > 128 | > 128 | > 128 | 16 (≈ 17.1 µg/mL)
